This passage reports IC50 results from patent US20110306597A1, “Nicotinamide Derivatives” (priority 2008, published 2011).

The structures appear in SMILES notation.

For this assay, the target named is human recombinant H-PGDS (Homo sapiens, UniProt O60760). The assay can be described thus: Fluorescence Intensity h-PGDS TBA Enzyme Assay. The following applies: 1:175,000 human recombinant H-PGDS, highest inhibitor concentration typically 1 μM. It counts as biochemical. As to the method: Fluorescence Intensity h-PGDSTBA Enzyme Assay
Chain of human recombinant H-PGDS (O60760 whole entry): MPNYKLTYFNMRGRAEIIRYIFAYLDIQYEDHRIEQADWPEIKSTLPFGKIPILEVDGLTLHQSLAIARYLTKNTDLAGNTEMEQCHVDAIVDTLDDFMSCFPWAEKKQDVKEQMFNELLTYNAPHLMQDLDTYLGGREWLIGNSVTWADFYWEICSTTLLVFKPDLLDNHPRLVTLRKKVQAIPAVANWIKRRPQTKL
Prostaglandin D Synthase (PGDS) converts the substrate prostaglandin H2 (PGH2) to prostaglandin D2. The depletion of PGH2 was measured via an Fe(II) reduction of the remaining PGH2 to malondialdehyde (MDA) and 12-HHT. The enzyme assay is based on the quantitative formation of a fluorescent complex from the non-fluorescent compounds MDA and 2-thiobarbituric acid (TBA), substantially as described in U.S. patent application publication US-2004/152148 by Lombardt.
The enzyme assay (31 μls) contained 100 mM Tris base pH 8.0, 100 μM MgCl2, 0.1 mg/ml IgG Rabbit serum, 5.0 μM PGH2 (Cayman; ethanol solution, #17020), 2.5 mM L-Glutathione (Sigma; reduced form #G4251), 1:175,000 human recombinant H-PGDS (from 1 mg/ml), 0.5% DMSO and inhibitor (varying concentration). Three μls of diluted inhibitor (dissolved in DMSO) was plated into a 384-well assay plate followed by a 25 μl addition of an enzyme solution containing h-PGDS, Tris, MgCl2, IgG and L-Glutathione. After preincubation of inhibitor and enzyme solution for 10 minutes at room temperature, the reaction was initiated with a 3 μl addition of substrate solution in 10 mM HCl. The reaction was terminated after 42 second by the addition (3 μl) of stop buffer containing FeCl2 and citric acid. After addition of 45.5 μls of TBA plates were heated for one hour in a 70 C oven. Plates were cooled at room temperature overnight and read on a plate reader the next day with excitation @ 530 nm and emission @ 565 nm.
IC50's of inhibitors were calculated with a 4-parameter fit using 11 inhibitor concentrations in duplicate with 3-fold serial dilutions. Controls on each plate included no inhibitor (zero % effect) and an inhibitor 10-fold in excess of its' IC50 (100% effect). The highest inhibitor concentration tested was typically 1 μM.
In the case of `CSc1ccc(CNC(=O)c2ccc(-c3cccc(F)c3)nc2)cc1` [Example 412, 6-(3-Fluorophenyl)-N-[4-(methylthio)benzyl] nicotinamide], the IC50 is 46.8 nM.
As for `COc1ccc(OCC(O)CNC(=O)c2ccc(-c3cccc(F)c3)nc2)cc1` (stereo not drawn) [Example 43, 6-(3-Fluorophenyl)-N-[2-hydroxy-3-(4-methoxyphenoxy)propyl] nicotinamide], the figure is 6.64 nM; as for `O=C(NCCc1nnc(C2CC2)o1)c1ccc(-c2cccc(F)c2)nc1` [Example 207, N-[2-(5-Cyclopropyl-1,3,4-oxadiazol-2-yl)ethyl]-6-(3-fluorophenyl)nicotinamide], 27.1 nM; as for `COCc1cc(CNC(=O)c2ccc(-c3cccc(F)c3)nc2)n[nH]1` [Example 36, 6-(3-Fluorophenyl)-N-{[5-(methoxymethyl)-1H-pyrazol-3-yl]methyl}nicotinamide], 27.7 nM.
As for `CCOC(=O)CC(NC(=O)c1ccc(-c2ccccc2)nc1)c1ccc(Cl)cc1` (stereo not drawn) [Example 401, Ethyl 3-(4-chlorophenyl)-3-{[(6-phenylpyridin-3-yl)carbonyl]amino}propanoate], the figure is 31.1 nM; as for `COc1cccc(-c2ccc(C(=O)NCC3CCCCO3)cn2)c1` (stereo not drawn) [Example 284, 6-(3-Methoxyphenyl)-N-(tetrahydro-2H-pyran-2-ylmethyl)nicotinamide], 519 nM.
Turning to `O=C(NCC1(O)CCSCC1)c1ccc(-c2cccc(F)c2)nc1` [Example 139, 6-(3-Fluorophenyl)-N-[(4-hydroxytetrahydro-2H-thiopyran-4-yl)methyl]nicotinamide], the 50% inhibitory concentration (IC50) worked out at 39 nM.
As for `Cc1ccc(CN2CCC(NC(=O)c3ccc(-c4cccc(F)c4)nc3)C2=O)cc1` (stereo not drawn) [Example 193, 6-(3-Fluorophenyl)-N-[1-(4-methylbenzyl)-2-oxopyrrolidin-3-yl]nicotinamide], the figure is 2.23 nM; as for `O=C(NCCC1CCC(=O)N1CCN1CCOCC1)c1ccc(-c2cccc(F)c2)nc1` (stereo not drawn) [Example 42, 6-(3-Fluorophenyl)-N-{2-[1-(2-morpholin-4-ylethyl)-5-oxopyrrolidin-2-yl]ethyl}nicotinamide], 12.6 nM; as for `Cc1ccc2c(c1C)OCCC2NC(=O)c1ccc(-c2cccc(F)c2)nc1` (stereo not drawn) [Example 531, N-(7,8-Dimethyl-3,4-dihydro-2H-chromen-4-yl)-6-(3-fluorophenyl)nicotinamide], 3.34 nM.
The figure for `CCOC(=O)CCNC(=O)c1ccc(-c2cccc(F)c2)nc1` [Example 209, Ethyl N-{[6-(3-fluorophenyl)pyridin-3-yl]carbonyl}-beta-alaninate] is 13.1 nM; for `CN(C)C(=O)CNC(=O)c1ccc(-c2ccccc2)nc1` [Example 374, N-[2-(Dimethylamino)-2-oxoethyl]-6-phenylnicotinamide] it is 92.1 nM.
The figure for `CC(C)[C@H](N)C(=O)NC(=O)c1ccc(-c2ccccc2)nc1` [Example 512, 6-Phenyl-N-L-valylnicotinamide] is 359 nM.
For `O=C(NCCNc1ccccc1)c1ccc(-c2ccccc2)nc1` [Example 520, N-(2-Anilinoethyl)-6-phenylnicotinamide], the IC50 stood at 8.8 nM.
The figure for `COc1cccc(-c2ccc(C(=O)NCc3cccc(S(C)(=O)=O)c3)cn2)c1` [Example 292, 6-(3-Methoxyphenyl)-N-[3-(methylsulfonyl)benzyl] nicotinamide] is 215 nM; for `Cc1cc(C)n(CCCNC(=O)c2ccc(-c3cccc(F)c3)nc2)n1` [Example 131, N-[3-(3,5-Dimethyl-1H-pyrazol-1-yl)propyl]-6-(3-fluorophenyl)nicotinamide] it is 27.2 nM; for `O=C(NCc1cccc(F)c1)c1ccc(-c2cccc(F)c2)nc1` [Example 405, N-(3-Fluorobenzyl)-6-(3-fluorophenyl)nicotinamide] it is 211 nM.
The figure for `O=C(NCc1ccco1)c1ccc(-c2ccc(F)cc2)nc1` [Example 473, 6-(4-Fluorophenyl)-N-(2-furylmethyl)nicotinamide] is 381 nM.

Usually IC50 stands for the concentration that inhibits the measured activity by half.
